{
  "source": "patent US8758723B2",
  "about": "“Compositions and methods for cellular imaging and therapy” (The Board of Regents of the University of Texas System, priority 2006, dated 2014)",
  "test_system": "tumor-bearing animal models",
  "test": "Planar images of tumor-bearing animal models",
  "assay_type": "in vivo",
  "details": "tumor-bearing animal models (FIGS. 5-7, 9, 10)",
  "method": "Imaging studies were performed 12 to 15 days after inoculation. Tumor sizes of approximately 1-1.5 cm were measured. Scintigraphic images were obtained using an M-camera from Siemens Medical Systems (Hoffman Estates, Ill.). The camera was equipped with a low-energy parallel-hole collimator.\nPlanar scintigraphy was obtained at immediate, 0.5-4 hrs after i.v. injection of ^99mTc—N4-DG, or ^99mTc—N4 (0.3 mCi/rat; 0.1 mg mass/rabbit). To compare the radiotracer accumulation, ROIs (region of interest in counts per pixel) were determined. The ROIs count between tumor and muscle was used to calculate tumor-to-nontumor ratios.",
  "data": [
    {"compound": "CC(N)(Cc1ccc(OCCCN2CCCNCCNCCCNCC2)cc1)C(=O)O", "note": "(stereo not shown) [Example N4-AMT]", "values": [
      {"measurement": "tumor visualization on planar images", "value": "visualized clearly"}
    ]}
  ]
}
